In brackets after ≈: the same amount, converted by molar mass. Where two headings read alike, the source gives them in different places.
Tests used:
Assay type in all cases: cell-based
[1] = system: Bacillus subtilis ATCC 6633; assay: Broth microdilution, B. subtilis ATCC 6633; details: Bs 6633
Procedure: (§1) The antibacterial activity of the obtained thiosemicarbazides and hydrazide–hydrazones was determined by evaluating their ability to inhibit microbial growth in vitro using the broth microdilution method, according to the guidelines of the European Committee on Antimicrobial Susceptibility Testing (EUCAST). The method involved the preparation of microbial suspensions with a standardized density of 0.5 on the McFarland scale (equivalent to 1.5 × 10^8 colony-forming units/mL for bacteria and […] for fungi). A solution of the test substances was then prepared (initial concentration 1000 µg/mL, diluted in sterile Mueller-Hinton broth for bacteria or Mueller-Hinton with 2% glucose for fungi). The test was carried out in 96-well polystyrene flat-bottom plates (Medlab, Poland) with 100 µL of appropriate sterile microbiological medium in each well. The first wells were filled with 200 µL of the test substance, diluted to the initial concentration, and then double-decreasing dilutions were made under aseptic conditions using an automatic pipette. The final step was the addition of a 10-fold diluted microbial suspension of 2 µL. At the same time, the following controls were included: (a) medium control (100 µL of sterile medium without microorganisms added), (b) microbial viability control, (c) test substance control (dilutions without added micro-organisms), (d) positive control of the drug used in the clinic. The plates thus prepared were incubated for 18 ± 2 h at 35 ± 2 °C under conditions optimal for the growth of the test microorganisms. After incubation, the spectrophotometric absorbance at 570 nm in each well of the plate was read. The aim of this part of the study was to determine two parameters: the minimum inhibitory concentration (MIC) and the minimum bactericidal or fungicidal concentration (MBC/MFC) of the test compound. […] The MBC value was determined by adding 5 µL of the contents of each well of the plate to solid sterile MHA or MHA + 2%glc medium for bacteria and fungi, respectively. The area on the plate where 99.9% inhibition of microbial growth was observed indicated the lethal concentration. In addition, the quotient MBC(MFC)/MIC could be determined to assess the nature of the activity of the test substance. If MBC(MFC)/MIC was <4, the test substance was bactericidal/fungicidal, whereas if MBC(MFC)/MIC was ≥4, it was bacteriostatic/fungistatic. Amoxicillin (Glentham Life Sciences, USA) and nystatin (Glentham Life Sciences, USA) were used as the controls for this assay.
(§2) The test was performed either on bacteria, comprising: Gram-positive (Staphylococcus aureus ATCC 25923, Staphylococcus aureus ATCC 6538, Staphylococcus aureus ATCC 43300 methicillin-resistant MRSA, Staphylococcus epidermidis ATCC 12228, Micrococcus luteus ATCC 10240, Bacillus subtilis ATCC 6633, Bacillus cereus ATCC 10876) and Gram-negative (Escherichia coli ATCC 25922, Pseudomonas aeruginosa ATCC 27853, Proteus mirabilis ATCC 12453, Klebsiella pneumoniae ATCC 13883) or yeast (Candida parapsilosis ATCC 22019, Candida glabrata ATCC 90030, Candida krusei ATCC 14243, Candida glabrata ATCC 15126, Candida tropicalis ATCC 1369, Candida auris CDC B11903, Candida lusitaniae ATCC 3449) reference strains from the American Type Culture Collection (ATCC) or the Centers for Disease Control and Prevention (CDC).

[2] = system: Micrococcus luteus ATCC 10240; assay: Broth microdilution, M. luteus ATCC 10240; details: Ml 10240; for MBC/MIC Ratio: <4 bactericidal, ≥4 bacteriostatic
Procedure: as §1, §2

[3] = system: Staphylococcus aureus ATCC 6538; assay: Broth microdilution, S. aureus ATCC 6538; details: Sa 6538
Procedure: as §1, §2

[4] = system: Staphylococcus aureus ATCC 43300 methicillin-resistant MRSA; assay: Broth microdilution, S. aureus ATCC 43300 MRSA; details: Sa 43300 MRSA
Procedure: as §1, §2

[5] = system: Bacillus cereus ATCC 10876; assay: Broth microdilution, B. cereus ATCC 10876; details: Bc 10876
Procedure: as §1, §2

[6] = system: Staphylococcus aureus ATCC 25923; assay: Broth microdilution, S. aureus ATCC 25923; details: Sa 25923
Procedure: as §1, §2

[7] = system: Staphylococcus epidermidis ATCC 12228; assay: Broth microdilution, S. epidermidis ATCC 12228; details: Se 12228; for MBC/MIC Ratio: <4 bactericidal, ≥4 bacteriostatic
Procedure: as §1, §2

[8] = system: Candida tropicalis ATCC 1369; assay: Broth microdilution, C. tropicalis ATCC 1369; details: Ct 1369
Procedure: as §1, §2

[9] = system: Candida auris CDC B11903; assay: Broth microdilution, C. auris CDC B11903; details: Ca B11903
Procedure: as §1, §2

[10] = system: Candida glabrata ATCC 15126; assay: Broth microdilution, C. glabrata ATCC 15126; details: Cg 15126
Procedure: as §1, §2

[11] = system: Candida lusitaniae ATCC 3449; assay: Broth microdilution, C. lusitaniae ATCC 3449; details: Cl 3449
Procedure: as §1, §2

[12] = system: Candida parapsilosis ATCC 22019; assay: Broth microdilution, C. parapsilosis ATCC 22019; details: Cp 22019
Procedure: as §1, §2

[13] = system: Candida krusei ATCC 14243; assay: Broth microdilution, C. krusei ATCC 14243; details: Ck 14243
Procedure: as §1, §2

[14] = system: Candida glabrata ATCC 90030; assay: Broth microdilution, C. glabrata ATCC 90030; details: Cg 90030
Procedure: as §1, §2

[15] = <4 bactericidal, ≥4 bacteriostatic

MIC [1] [µg/mL]	MIC [8] [µg/mL]	MIC [2] [µg/mL]	MIC [3] [µg/mL]	MIC [4] [µg/mL]	MIC [5] [µg/mL]	MIC [9] [µg/mL]	MIC [10] [µg/mL]	MIC [6] [µg/mL]	MIC [11] [µg/mL]	MIC [12] [µg/mL]	MIC [13] [µg/mL]	Structure (SMILES)	MBC [1] [µg/mL]	MFC [8] [µg/mL]	MBC [2] [µg/mL]	MBC/MIC Ratio [2]	MBC [3] [µg/mL]	MBC [6] [µg/mL]	MFC [12] [µg/mL]	MBC [7] [µg/mL]	also measured
												CC1(C)S[C@@H]2[C@H](NC(=O)[C@H](N)c3ccc(O)cc3)C(=O)N2[C@H]1C(=O)O [AMX, amoxicillin, reference compound]									MBC ([1]; Bacillus subtilis, ATCC6633, read-out: MBC): 125 µg/mL (≈ 342 µM); MIC ([1]; Bacillus subtilis, ATCC6633, read-out: MIC): 125 µg/mL (≈ 342 µM); MBC ([2]; Micrococcus luteus, ATCC10240, read-out: MBC): 0.98 µg/mL (≈ 2.68 µM); MIC ([2]; Micrococcus luteus, ATCC10240, read-out: MIC): 0.98 µg/mL (≈ 2.68 µM); MBC ([3]; Staphylococcus aureus, ATCC6538, read-out: MBC): 0.98 µg/mL (≈ 2.68 µM); MIC ([3]; Staphylococcus aureus, ATCC6538, read-out: MIC): 0.98 µg/mL (≈ 2.68 µM); MBC ([4]; Staphylococcus aureus, read-out: MBC): 31.2 µg/mL (≈ 85.5 µM); MIC ([4]; Staphylococcus aureus, read-out: MIC): 31.2 µg/mL (≈ 85.5 µM); MBC ([5]; Bacillus cereus, ATCC10876, read-out: MBC): 125 µg/mL (≈ 342 µM); MIC ([5]; Bacillus cereus, ATCC10876, read-out: MIC): 125 µg/mL (≈ 342 µM); MBC ([6]; Staphylococcus aureus, ATCC25923, read-out: MBC): 0.98 µg/mL (≈ 2.68 µM); MIC ([6]; Staphylococcus aureus, ATCC25923, read-out: MIC): 0.98 µg/mL (≈ 2.68 µM); MBC ([7]; Staphylococcus epidermidis, ATCC12228, read-out: MBC): 0.98 µg/mL (≈ 2.68 µM); MIC ([7]; Staphylococcus epidermidis, ATCC12228, read-out: MIC): 0.98 µg/mL (≈ 2.68 µM)
1000 (≈ 3120 µM)	500 (≈ 1560 µM)	1000 (≈ 3120 µM)	1000 (≈ 3120 µM)	>1000	>1000	>1000	>1000	500 (≈ 1560 µM)	>1000	500 (≈ 1560 µM)	>1000	Cn1cc([N+](=O)[O-])nc1C(=O)NNC(=S)Nc1ccccc1 [Compound 2]	>1000	>1000	1000 (≈ 3120 µM)	1	>1000	>1000	>1000	1000 (≈ 3120 µM)	MIC [7]: 1000 µg/mL (≈ 3120 µM); MBC/MIC Ratio [7]: 1; MIC [14]: >1000 µg/mL
62.5 (≈ 176 µM)	500 (≈ 1410 µM)	125 (≈ 352 µM)	125 (≈ 352 µM)	125 (≈ 352 µM)	250 (≈ 705 µM)	>1000	>1000	62.5 (≈ 176 µM)	>1000	62.5 (≈ 176 µM)	>1000	Cn1cc([N+](=O)[O-])nc1C(=O)NNC(=S)Nc1ccc(Cl)cc1 [Compound 5]	62.5 (≈ 176 µM)	>1000	125 (≈ 352 µM)	1	>1000	>1000	>1000	125 (≈ 352 µM)	MBC/MIC Ratio [1, 15]: 1; MBC [4]: >1000 µg/mL; MBC [5]: 250 µg/mL (≈ 705 µM); MBC/MIC Ratio [5, 15]: 1; MIC [7]: 125 µg/mL (≈ 352 µM); MBC/MIC Ratio [7]: 1; MIC [14]: >1000 µg/mL

— article PMC11243693, “Synthesis and Biological Evaluation of New Compounds with Nitroimidazole Moiety” (Molecules, 2024)
